Measured values as given in patent US8557816B2, “Aurora kinase modulators and method of use” (Amgen Inc., priority 2007, dated 2013).

Assays:
AuroraB = biological target: T1, AuroraB (Homo sapiens, UniProt Q96GD4); experiment: AuroraB Homogeneous Time Resolved Fluorescent (HTRF) kinase assay; format: biochemical; details: average; read-out: AurB_IC50_IP (uM Avg)
T1 construct: 20 μL of AuroraB FL H is for a final volume of 41 μL; His
Method: AuroraB-Homogeneous Time Resolved Fluorescent (HTRF) Kinase Assay:
The AuroraB HTRF assay begins with AuroraB in the presence of ATP phosphorylating the biotinylated peptide Histone H3. The reaction incubates for about 90 min. the reaction is quenched by addition of detection reagents, which stop the reaction by diluting out the enzyme and chelating the metals due to the presence of EDTA. After addition, the assay is incubated for about 60 min to allow detection reagents to equilibrate.
The AuroraB HTRF assay comprises 1 μL of compound in 100% DMSO, 20 μL of ATP and biotinylated Histone H3, and 20 μL of AuroraB FL H is for a final volume of 41 μL. The final concentration of Histone H3 is 0.1 μM. […] Buffer conditions are as follows: 50 mM HEPES pH 7.5, 5 mM NaCl, 0.5 mM MgCl, 0.5 mM MnCl, 2 mM DTT, 0.05% BSA.
(§1) The assay is quenched and stopped with 160 μL of detection reagent. Detection reagents are as follows: Buffer made of 50 mM Tris, pH 7.5, 100 mM NaCl, 3 mM EDTA, 0.05% BSA, 0.1% Tween20. Added to this buffer prior to reading is Steptavidin allophycocyanin (SA-APC) at a final conc in the assay of 0.001 mg/mL, and europilated anti-phosphoHistoneH3 Ab (Eu-anti-HisH3) at a final conc of 0.064 nM.
The assay plate is read in either a Discovery or a RubyStar. The eu-anti-HisH3 is excited at 320 nm and emits at 615 nm to excite the SA-APC which in turn emits at 655 nm.

AuroraA-TPX2 = biological target: T2, AuroraA-TPX2 (Homo sapiens, UniProt O14965); experiment: AuroraA-TPX2 Homogeneous Time Resolved Fluorescent (HTRF) kinase assay; format: biochemical; details: average; read-out: AurA_IC50_IP (uM Avg)
T2 construct: 20 μL of AuroraA-TPX2 KD GST for a final volume of about 41 μL; GST
T2 sequence (O14965 133-383 limits assumed): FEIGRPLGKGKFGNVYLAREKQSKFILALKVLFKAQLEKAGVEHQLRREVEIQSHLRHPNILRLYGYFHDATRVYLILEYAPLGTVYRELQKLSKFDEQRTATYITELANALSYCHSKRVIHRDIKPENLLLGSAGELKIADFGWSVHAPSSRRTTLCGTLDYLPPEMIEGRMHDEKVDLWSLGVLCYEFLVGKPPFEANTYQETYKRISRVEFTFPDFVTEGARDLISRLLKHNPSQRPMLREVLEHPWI
T2 sequence (Q9ULW0 1-43 partner limits assumed): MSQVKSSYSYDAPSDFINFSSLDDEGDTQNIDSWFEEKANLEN
Method: AuroraA-TPX2-Homogeneous Time Resolved Fluorescent (HTRF) Kinase Assay:
The Aurora-A HTRF assay begins with Aurora-A in the presence of ATP phosphorylating the biotinylated peptide PLK. The reaction incubates for about 120 min. Detection reagents are added to quench the reaction. These agents stop the reaction by diluting out the enzyme and chelating the metals due to the presence of EDTA. After addition, the assay is incubated overnight to allow the detection reagents to equilibrate.
The AuroraA HTRF assay comprises 1 μL of compound in 100% DMSO, 20 μL of ATP and biotinylated PLK, and 20 μL of AuroraA-TPX2 KD GST for a final volume of about 41 μL. The final concentration of PLK is about 1 μM. […] Buffer conditions are as follows: 60 mM HEPES pH 7.5, 25 mM NaCl, 10 mM MgCl, 2 mM DTT, 0.05% BSA.
as §1, with “0.0005” for “0.001”, “anti-phosphoPLK” for “anti-phosphoHistoneH3”, “(Eu-anti-PLK)” for “(Eu-anti-HisH3)”, “0.02” for “0.064”
The assay plate is read in either a Discovery or a RubyStar. The eu-anti-PLK is excited at 320 nm and emits at 615 nm to excite the SA-APC which in turn emits at 655 nm.

T1 sequence (Q96GD4 whole entry): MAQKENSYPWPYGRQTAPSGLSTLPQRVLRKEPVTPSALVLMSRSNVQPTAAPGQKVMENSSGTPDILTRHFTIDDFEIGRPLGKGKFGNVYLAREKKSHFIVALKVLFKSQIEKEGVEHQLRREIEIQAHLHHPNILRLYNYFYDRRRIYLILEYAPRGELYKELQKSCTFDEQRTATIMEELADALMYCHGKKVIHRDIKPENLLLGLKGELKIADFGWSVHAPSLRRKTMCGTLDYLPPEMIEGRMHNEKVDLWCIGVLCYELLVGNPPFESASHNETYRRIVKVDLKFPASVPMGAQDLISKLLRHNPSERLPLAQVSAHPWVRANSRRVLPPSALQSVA

| IC50 (AuroraB) | IC50 (AuroraA-TPX2) | SMILES |
| --- | --- | --- |
| 0.645 µM | 0.532 µM | COc1cnc2c([S+]([O-])c3ccc(Nc4nnc(-c5ccc(F)cc5)c5ccccc45)cc3)ccnc2c1 (stereo not drawn) [Example 410, 4-(4-fluorophenyl)-N-(4-(7-methoxy-1,5-naphthyridin-4-ylsulfinyl)phenyl)phthalazin-1-amine] |
| 0.001 µM | 0.021 µM | CCc1cc(-c2ccccc2)nnc1Nc1ccc(Oc2ccnc3cc(C(N)=O)ccc23)cc1 [compound 49, 4-((4-((4-ethyl-6-phenyl-3-pyridazinyl)amino)phenyl)oxy)-7-quinolinecarboxamide] |
| 0.023 µM | 0.86 µM | COc1cnc2c(N(C)c3ccc(Nc4nnc(-c5ccccc5)c5ccccc45)cc3)ccnc2c1 [compound 51, N-methyl-N-(7-(methyloxy)-1,5-naphthyridin-4-yl)-N′-(4-phenyl-1-phthalazinyl)-1,4-benzenediamine] |
| 0.032 µM | 0.014 µM | COc1cc2nccc(Oc3ccc(Nc4nnc(-c5ccc(C)c(C)c5)c5ccccc45)cc3)c2cc1OC [compound 74, N-(4-((6,7-bis(methyloxy)-4-quinolinyl)oxy)phenyl)-4-(3,4-dimethylphenyl)-1-phthalazinamine] |
| 0.042 µM | 0.023 µM | COc1cc2nccc(Oc3ccc(Nc4nnc(N5CCCCC5)c5ccccc45)cc3)c2cc1OC [compound 75, N-(4-((6,7-bis(methyloxy)-4-quinolinyl)oxy)phenyl)-4-(1-piperidinyl)-1-phthalazinamine] |
| 0.106 µM | 0.034 µM | COc1cc2nccc(Oc3ccc(Nc4nnc(-c5cccs5)c5ccccc45)cc3F)c2cc1OC [compound 76, N-(4-((6,7-bis(methyloxy)-4-quinolinyl)oxy)-3-fluorophenyl)-4-(2-thienyl)-1-phthalazinamine] |
| 0.079 µM | 0.701 µM | COc1cc2nccc(Oc3ccc(Nc4nnc(-n5nc(C)cc5C)c5ccccc45)cc3F)c2cc1OC [compound 77, N-(4-((6,7-bis(methyloxy)-4-quinolinyl)oxy)-3-fluorophenyl)-4-(3,5-dimethyl-1H-pyrazol-1-yl)-1-phthalazinamine] |
| 0.004 µM | 0.022 µM | NC(=O)c1cc2nccc(Oc3ccc(Nc4nnc(-c5ccccc5)c5ccccc45)cc3F)c2s1 [compound 78, 7-((2-fluoro-4-((4-phenyl-1-phthalazinyl)amino)phenyl)oxy)thieno-[3,2-b]pyridine-2-carboxamide] |
| 0.008 µM | 0.028 µM | COc1cnc2c(Oc3ccc(Nc4nnc(-c5ccccc5)c5ccccc45)cc3)ccnc2c1 [compound 79, N-(4-((7-(methyloxy)-1,5-naphthyridin-4-yl)oxy)phenyl)-4-phenyl-1-phthalazinamine] |
| 0.041 µM | 0.414 µM | COc1cnc2c(Oc3ccc(Nc4nnc(-c5cc(F)ccc5OC)c5ccccc45)cc3)ccnc2c1 [compound 80, 4-(5-fluoro-2-(methyloxy)phenyl)-N-(4-((7-(methyloxy)-1,5-naphthyridin-4-yl)oxy)phenyl)-1-phthalazinamine] |
| 0.006 µM | 0.012 µM | COc1cnc2c(Oc3ccc(Nc4nnc(-c5ccc(C)cc5)c5ccccc45)cc3)ccnc2c1 [compound 81, N-(4-((7-(methyloxy)-1,5-naphthyridin-4-yl)oxy)phenyl)-4-(4-methylphenyl)-1-phthalazinamine] |
| 0.006 µM | 0.013 µM | COc1cnc2c(Oc3ccc(Nc4nnc(-c5nc(C)cs5)c5ccccc45)cc3)ccnc2c1 [compound 82, N-(4-((7-(methyloxy)-1,5-naphthyridin-4-yl)oxy)phenyl)-4-(4-methyl-1,3-thiazol-2-yl)-1-phthalazinamine] |
| 0.01 µM | 0.08 µM | CCc1cc(-c2ccccc2)nnc1Nc1ccc(Oc2ccnc3cc(OC)cnc23)nc1 [compound 83, 4-ethyl-N-(6-((7-(methyloxy)-1,5-naphthyridin-4-yl)oxy)-3-pyridinyl)-6-phenyl-3-pyridazinamine] |
| 0.002 µM | 0.16 µM | COc1cnc2c(Oc3cnc(Nc4nnc(-c5ccccc5)c5ccccc45)nc3)ccnc2c1 [compound 84, N-(5-((7-(methyloxy)-1,5-naphthyridin-4-yl)oxy)-2-pyrimidinyl)-4-phenyl-1-phthalazinamine] |
| 0.004 µM | 0.066 µM | COc1cnc2c(Oc3ccc(Nc4nnc(N5CCN(C)CC5)c5ccccc45)cc3)ccnc2c1 [compound 85, N-(4-((7-(methyloxy)-1,5-naphthyridin-4-yl)oxy)phenyl)-4-(4-methyl-1-piperazinyl)-1-phthalazinamine] |
| 0.014 µM | 0.031 µM | Cc1csc(-c2nnc(Nc3ccc(Oc4ccnc5cc(C#N)ccc45)cc3)c3ccccc23)n1 [compound 86, 4-((4-((4-(4-methyl-1,3-thiazol-2-yl)-1-phthalazinyl)amino)phenyl)oxy)-7-quinolinecarbonitrile] |
| 0.013 µM | 0.142 µM | COc1ccc(F)cc1-c1nnc(Nc2ccc(Oc3ccnc4cc(C#N)ccc34)cc2)c2ccccc12 [compound 87, 4-((4-((4-(5-fluoro-2-(methyloxy)phenyl)-1-phthalazinyl)amino)phenyl)oxy)-7-quinolinecarbonitrile] |
| 0.003 µM | 0.006 µM | Cc1ccc(-c2nnc(Nc3ccc(Oc4ccnc5cc(C#N)ccc45)cc3)c3ccccc23)cc1 [compound 88, 4-((4-((4-(4-methylphenyl)-1-phthalazinyl)amino)phenyl)oxy)-7-quinolinecarbonitrile] |
| 0.007 µM | 0.012 µM | COc1cnc2c(Oc3ccc(Nc4nnc(-c5ccccc5)c5ccccc45)cc3F)ccnc2c1 [compound 89, N-(3-fluoro-4-((7-(methyloxy)-1,5-naphthyridin-4-yl)oxy)phenyl)-4-phenyl-1-phthalazinamine] |
| 0.025 µM | 0.019 µM | COc1cc2nccc(Oc3ccc(Nc4nnc(-c5ccccc5)c5ccccc45)cc3)c2cc1OC [compound 90, N-(4-((6,7-bis(methyloxy)-4-quinolinyl)oxy)phenyl)-4-phenyl-1-phthalazinamine] |
| 0.012 µM | 0.054 µM | COc1ccc2c(Oc3ccc(Nc4nnc(-c5ccccc5)c5ccccc45)cc3)ccnc2c1 [compound 91, N-(4-((7-(methyloxy)-4-quinolinyl)oxy)phenyl)-4-phenyl-1-phthalazinamine] |
| 0.003 µM | 0.007 µM | COc1cnc2c(Oc3ccc(Nc4nnc(N5CCN6CCCC6C5)c5ccccc45)cc3)ccnc2c1 (stereo not drawn) [compound 92, 4-(hexahydropyrrolo[1,2-a]pyrazin-2(1H)-yl)-N-(4-((7-(methyloxy)-1,5-naphthyridin-4-yl)oxy)phenyl)-1-phthalazinamine] |
| 0.001 µM | 0.008 µM | N#Cc1ccc2c(Oc3ccc(Nc4nnc(-c5cccc(O)c5)c5ccccc45)cc3)ccnc2c1 [compound 93, 4-((4-((4-(3-hydroxyphenyl)-1-phthalazinyl)amino)phenyl)oxy)-7-quinolinecarbonitrile] |
| 0.001 µM | 0.027 µM | CN1CCN(c2nnc(Nc3ccc(Oc4ccnc5cc(C#N)ccc45)cc3)c3ccccc23)CC1 [compound 94, 4-((4-((4-(4-methyl-1-piperazinyl)-1-phthalazinyl)amino)phenyl)oxy)-7-quinolinecarbonitrile] |
